# What was measured:
# CD44v6 [1] = assay: HGF-induced activation of Met and ERK in L3.6pl cells (Western blot); assay type: cell-based, human; settings: peptide before induction with 10 ng/ml HGF
# Experimental: Serum-starved cells (24 hours) were induced with the growth factor HGF (10 ng/mL) at 37° C. for 5 minutes. Where indicated, the cells were treated with peptides (100 ng/ml) prior to induction at 37° C. for 10 minutes (100 ng/mL CD44v6 peptide or control peptide). Following the induction with HGF, cells were washed with ice-cold phosphate-buffered saline (PBS). To detect activated Met and ERK, cells were lysed in sodium dodecyl sulfate (SDS)—sample buffer containing 100 mM dithiothreitol (DTT), boiled and subjected to western blot analysis using antibodies against phospho-Met and ERK. The loading controls were performed on the same blot after stripping (62.5 mM Tris, pH 6.8, 2% SDS, 0.8% DTT) by probing with the Met respectively Erk antibody. Blots were stained using the enhanced chemiluminescence system (Thermo Fisher Scientific, Schwerte, Germany). Bands in western blot analysis were quantified with the program Image J (National Institutes of Health).
# To expand the studies to human pancreatic tumors, the highly metastatic human pancreatic carcinoma cells L3.6pl (Bruns, et al. Neoplasia (1999), 1(1):50-62) were investigated. These cells originate from the […] cells that have been passaged several times in the liver and the pancreas, a step that rendered them more and more metastatic. It was confirmed that Met is dependent on CD44v6 for its activation and signaling in these cells (FIG. 19A). The L3.6pl cells were treated with HGF in the presence or absence of a human v6 peptide of SEQ ID NO: 2 or SEQ ID NO:6 and Met activation and downstream signaling to ERK was measured. Phosphorylation of both Met and ERK was inhibited by the human v6 peptide. Treatment with a corresponding rat v6 peptide (ctrl peptide, SEQ ID NO: 10 or 11) had no influence on receptor activation and signal transduction (FIG. 19A).
# The contribution of CD44v6 to Met signaling in the human epithelial pancreatic cancer cells L3.6pl (derived from Colo 357), the cervix carcinoma cells HeLa and the colon cancer cells HT29 were analysed using the CD44v6 peptide (v6 14mer; v6 5mer tested as well, data not shown).
# CD44v6 [2] = biological target: T1, CD44v6 (Homo sapiens, UniProt P16070); assay: Peptide blocking of EGF/TGFα-induced Erk phosphorylation in MCF7 cells (Western blot); assay type: cell-based; settings: peptide 100 ng/ml
# T1 construct: endogenous in cells; host or cells: MCF7; MCF10A
# Experimental: 3×10^5 were seeded per well of a 6-well plate and serum-starved for 24 hours. Afterwards the medium inside of each well was reduced to 1 ml and the respective peptide (v6 (both peptides of SEQ ID No.: 2 and 6 were tested), or ctrl peptide) was added at a concentration of 100 ng/ml. The cells then were incubated together with the peptide at 37° C. for 5 mins. Ligand concentration for all peptide blocking experiments was 20 ng/ml.
# To assay protein expression via Western blot cells were washed 1× with PBS and afterwards lysed in 2×Laemmli sample buffer (160 mM Tris-HCl pH 6.8, 4% SDS, 16% glycerol, 0.1M DTT, 0.01% bromphenol blue). The sample was sheared through a 26 gauge needle. In succession the lysates were boiled for 5 mins at 99° C. in order to denature the proteins in the sample and then spun down at 10 000 rmp for 1 min Eventually the samples were loaded onto an SDS-PAGE gel.
# To test whether CD44v6 acts as a co-receptor in MCF7 or MCF10A cells, a peptide blocking experiment using peptides of SEQ ID NO: 6 was conducted. The cells were serum-starved for 24 h and then pre-incubated with a v6 peptide or an unspecific control peptide. Then, the cells were induced with EGF or HGF as a control. As a read-out for ErbB-activation, the phosphorylation of the Erk-kinase was used.
# L3.6pl cells [3] = assay: Human orthotopic pancreatic cancer model, L3.6pl cells in nude mice, treatment from day 7; assay type: in vivo, mouse
# Experimental: In the case of the human orthotopic model, L3.6pl pancreatic carcinoma cells (passage 24-26) were suspended in Hank's balanced salt solution (Invitrogen, Karlsruhe, Germany) after trypsinization. The cells were injected orthotopically in the pancreas of male nude mice as described (Bruns C J et al. (1999) Neoplasia 1(1):50-62). Two groups of 15 mice each were injected i.p. 7 days later with either the human v6 peptide respectively rat control peptide (20 μg). For all experiments described and depicted herein either the rat 14mer control peptide or the human 14mer peptide were used. All experiments were then repeated with the rat 5mer control peptide or the human 5mer peptide (N-R-W-H-E, SEQ ID NO: 2). […] The injection was repeated three times per week for 21 days. Two days after the last treatment the animals were killed.
# 7 μm thick paraffin sections were deparaffinized and rehydrated. For P-Met staining antigen unmasking was achieved by boiling the slides in 1 mM EDTA pH 8.0 followed by incubation for 15 minutes at a sub-boiling temperature, for CD31 staining the sections were treated with Proteinase K (8 μg/ml) for […] at 37° C. For immunofluorescence staining of P-Met, unspecific binding was blocked with 5% goat serum (DAKO, Glostrup, Denmark) (diluted in 1×PBS/0.3% Triton X-100) for 60 minutes. In the case of immunohistochemistry, endogenous peroxidases were at first blocked with 3% H2O2 in PBS followed by incubation with biotin blocking system (Dako, Glostrup, Denmark) and then unspecific binding was inhibited by incubation with 5% FCS in PBS was used for blocking. The sections were incubated with the P-Met antibody (D26, dilution 1:50 in 1×PBS/1% BSA/0.3% Triton X-100), Met antibody (C-28, dilution 1:50), GFP antibody (sc-101525, dilution 1:50) or CD31 antibody (5 μg/ml) over night or VFF18 (5 μg/ml) o/n at 4° C. After washing in PBS the sections were incubated with Alexa Fluor R 546 goat anti-rabbit (in case of immunofluorescence P-Met and Met staining, dilution 1:500) or a biotinylated secondary antibody (for immunohistochemical stainings rabbit anti-rat antibody for VFF18 and CD31, goat anti-rabbit for P-Met, cleaved Caspase-3 and cleaved Caspase-8 and rabbit anti-mouse for GFP, dilution 1:500) for 45 minutes. For DAB staining the sections were treated with a streptavidin-peroxidase conjugate (Dako, Glostrup, Denmark) and developed with DAB (3,3′-diaminobenzidine) substrate system (3,3′-diaminobenzidine; Biozol, Eching, Germany) For immunofluorescence DAPI was used for nuclear staining.
# To test the effect of the peptide on tumor growth and metastasis formation the L3.6pl cells were orthotopically injected into the pancreas of immunosuppressed mice (NCI-nu). […] The primary tumor expresses a high amount of CD44v6 (FIG. 19B). […] Indeed, human HGF in a concentration of 3375 pg/ml was detected in the supernatant (see Material and Methods) after 5 days of culture (data not shown).
# L3.6pl cells [4] = assay: Regression of already established metastases, L3.6pl orthotopic mouse model; assay type: in vivo; settings: nude mice, orthotopic L3.6pl, treatment from week 3 for three weeks; human v6 peptide or rat control peptide 20 μg i.p.
# Experimental: In order to examine the regression of metastases (either BSp73ASs6 or L3.6pl) were implanted as described above. Tumor growth was allowed for three weeks. At that time all animals had developed metastases in the control group. Animals were injected i.p. with 20 μg (L3.6pl orthotopic mouse model: human v6 peptide or rat control peptide) or i.v. with 200 μg (rat syngeneic model: rat v6 peptide or mouse control peptide) of peptides three times per week. Animals were killed 23 days after the start of the peptide treatment.
# The specific binding of the CD44v6 peptides to specific areas of the lungs in the rat system and of the liver in the human model raises the question whether these peptides might have an effect on already established metastases. In the experiments described in FIGS. 17 and 19 the peptides were applied early after injection of the tumor cells and repressed completely the establishment of metastases. In order to measure the effect of the CD44v6 peptide on already established metastases, other experimental settings were used. BSp73ASs6 cells were injected subcutaneously into syngeneic rats and L3.6pl cells orthotopically into male nude mice and allowed to grow for 3 weeks. […]
# T1 sequence (P16070 21-742): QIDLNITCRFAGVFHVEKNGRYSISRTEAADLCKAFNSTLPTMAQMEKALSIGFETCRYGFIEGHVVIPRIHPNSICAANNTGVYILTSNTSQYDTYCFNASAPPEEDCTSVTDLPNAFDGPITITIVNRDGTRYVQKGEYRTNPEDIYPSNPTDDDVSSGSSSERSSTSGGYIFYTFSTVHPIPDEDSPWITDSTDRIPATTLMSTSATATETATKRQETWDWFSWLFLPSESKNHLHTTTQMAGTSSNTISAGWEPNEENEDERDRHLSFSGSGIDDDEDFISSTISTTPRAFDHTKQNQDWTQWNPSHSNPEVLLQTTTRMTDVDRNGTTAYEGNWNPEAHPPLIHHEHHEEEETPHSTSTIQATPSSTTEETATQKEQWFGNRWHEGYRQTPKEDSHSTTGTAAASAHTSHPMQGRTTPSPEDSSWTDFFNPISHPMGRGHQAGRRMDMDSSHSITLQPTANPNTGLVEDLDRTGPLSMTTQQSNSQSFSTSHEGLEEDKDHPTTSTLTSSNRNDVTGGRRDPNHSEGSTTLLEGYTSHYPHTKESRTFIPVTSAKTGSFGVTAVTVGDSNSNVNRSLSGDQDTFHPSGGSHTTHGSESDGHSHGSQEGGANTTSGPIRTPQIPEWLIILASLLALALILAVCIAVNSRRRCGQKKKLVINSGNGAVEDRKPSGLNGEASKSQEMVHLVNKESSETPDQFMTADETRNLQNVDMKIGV
substance,measurement,setting,value
"NRWHE [SEQ ID NO: 2, human CD44v6 5mer peptide]",HGF-induced phosphorylation/activation of ERK,CD44v6 [1],inhibited
same,HGF-induced phosphorylation/activation of Met,CD44v6 [1],inhibited
same,EGF-induced activation of the ErbB receptors (Erk phosphorylation),"CD44v6 [2]; MCF7, serum-starved, EGF 20 ng/ml",blocking of Erk phosphorylation
same,Erk phosphorylation upon TGFα induction,"CD44v6 [2]; MCF7, TGFα 20 ng/ml",not upon TGFα induction
same,"Outcome of all experiments repeated with 5mer peptides, compared with 14mer","L3.6pl cells [3]; L3.6pl orthotopic model, 5mer instead of 14mer",same results as for the 14mer peptides
same,Metastasis formation (liver),"L3.6pl cells [3]; nude mice, orthotopic L3.6pl, 20 μg i.p. three times per week",capable of inhibiting metastasis
same,Presence of metastases (liver) after treatment of established metastases,L3.6pl cells [4],eliminate already established metastases

# From patent US9586994B2, “CD44V6-derived peptides for treating breast cancer” (KARLSRUHER INSTITUT FÜR TECHNOLOGIE, priority 2012, dated 2017)
